# Reference: ChEMBL document CHEMBL1136068 (Bioorg Med Chem Lett, 2003)
# Activity calls are given as the source filed them. The rule behind the calls is not given here.
# Assays:
# Estrogen receptor [1] = biological target: T1, Estrogen receptor (Homo sapiens, UniProt Q92731+P03372); assay: Inhibitory activity against human Estrogen receptor; not active; format: protein assay
# [2] = biological target: T2, Progesterone receptor (Homo sapiens) (UniProt P06401); assay: Antagonistic efficacy towards human progesterone receptor (hPR) using the cotransfection assay in CV-1 cells; Not active; format: functional, cell-based
# T2 sequence (whole entry): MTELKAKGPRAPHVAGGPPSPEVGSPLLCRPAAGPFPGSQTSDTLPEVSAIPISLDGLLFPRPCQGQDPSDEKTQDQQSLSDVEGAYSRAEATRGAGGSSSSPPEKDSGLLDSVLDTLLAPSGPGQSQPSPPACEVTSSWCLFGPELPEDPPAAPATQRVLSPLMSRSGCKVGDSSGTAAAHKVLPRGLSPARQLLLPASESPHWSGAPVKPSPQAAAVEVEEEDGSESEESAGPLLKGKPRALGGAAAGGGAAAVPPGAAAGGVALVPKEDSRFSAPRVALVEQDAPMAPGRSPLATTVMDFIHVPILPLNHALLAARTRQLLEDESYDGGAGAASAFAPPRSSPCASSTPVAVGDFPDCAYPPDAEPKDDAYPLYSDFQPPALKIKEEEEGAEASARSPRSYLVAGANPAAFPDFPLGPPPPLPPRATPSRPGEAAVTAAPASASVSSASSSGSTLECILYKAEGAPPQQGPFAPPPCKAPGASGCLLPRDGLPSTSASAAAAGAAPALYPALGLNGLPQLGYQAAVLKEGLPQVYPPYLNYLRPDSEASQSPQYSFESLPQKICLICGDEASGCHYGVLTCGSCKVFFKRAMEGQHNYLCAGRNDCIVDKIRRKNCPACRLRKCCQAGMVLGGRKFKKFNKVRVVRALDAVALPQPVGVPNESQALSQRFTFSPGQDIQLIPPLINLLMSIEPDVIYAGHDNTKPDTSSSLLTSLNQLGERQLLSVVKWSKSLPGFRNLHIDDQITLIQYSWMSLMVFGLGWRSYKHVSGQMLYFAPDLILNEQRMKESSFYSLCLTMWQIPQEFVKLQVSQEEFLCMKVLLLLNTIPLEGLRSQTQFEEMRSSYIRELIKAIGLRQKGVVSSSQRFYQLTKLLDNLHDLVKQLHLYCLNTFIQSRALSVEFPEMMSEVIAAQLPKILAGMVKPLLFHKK
# Progesterone receptor [3] = biological target: T3, Progesterone receptor (Homo sapiens, UniProt P06401); assay: Inhibitory concentration for antagonistic activity towards human progesterone receptor (hPR) using the cotransfection assay in CV-1 cells; Not active; format: functional, cell-based
# T3 sequence (P06401 whole entry): T2 sequence (whole entry)
# [4] = biological target: T4, Mineralocorticoid receptor (Homo sapiens, UniProt P08235); assay: Antagonist activity at mineralocorticoid receptor (hMR); not active; format: functional
# T4 sequence (P08235 whole entry): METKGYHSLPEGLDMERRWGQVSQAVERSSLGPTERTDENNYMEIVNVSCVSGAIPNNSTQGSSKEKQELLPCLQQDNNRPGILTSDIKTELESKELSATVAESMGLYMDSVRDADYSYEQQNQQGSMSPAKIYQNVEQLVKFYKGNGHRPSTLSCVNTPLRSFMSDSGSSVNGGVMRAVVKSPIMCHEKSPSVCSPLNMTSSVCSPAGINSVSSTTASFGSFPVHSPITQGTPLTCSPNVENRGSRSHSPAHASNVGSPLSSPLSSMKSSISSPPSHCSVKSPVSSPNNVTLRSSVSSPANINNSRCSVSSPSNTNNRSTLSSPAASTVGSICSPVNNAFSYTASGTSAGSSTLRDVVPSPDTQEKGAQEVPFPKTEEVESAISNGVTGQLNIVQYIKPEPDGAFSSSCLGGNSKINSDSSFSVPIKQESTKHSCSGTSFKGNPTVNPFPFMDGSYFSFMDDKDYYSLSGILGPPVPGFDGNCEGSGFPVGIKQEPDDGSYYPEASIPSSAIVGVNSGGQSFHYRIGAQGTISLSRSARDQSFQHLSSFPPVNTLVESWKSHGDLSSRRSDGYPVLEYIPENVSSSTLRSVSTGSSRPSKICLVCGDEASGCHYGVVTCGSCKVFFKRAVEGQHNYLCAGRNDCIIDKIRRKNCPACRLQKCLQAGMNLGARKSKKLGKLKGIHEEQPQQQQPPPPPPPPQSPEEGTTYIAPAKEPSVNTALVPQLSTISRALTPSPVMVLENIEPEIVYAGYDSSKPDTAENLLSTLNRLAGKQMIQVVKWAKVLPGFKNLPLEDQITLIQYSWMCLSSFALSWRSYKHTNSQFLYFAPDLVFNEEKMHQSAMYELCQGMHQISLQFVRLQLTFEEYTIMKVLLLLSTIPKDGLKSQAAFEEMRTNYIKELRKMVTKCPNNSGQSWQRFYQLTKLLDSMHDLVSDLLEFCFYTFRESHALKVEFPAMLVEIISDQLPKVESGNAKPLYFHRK
# [5] = biological target: T5, Mineralocorticoid receptor (Homo sapiens) (UniProt P08235); assay: Antagonist efficacy at mineralocorticoid receptor (hMR); not active; format: functional
# T5 sequence (whole entry): T4 sequence (P08235 whole entry)
# Estrogen receptor [6] = biological target: T1, Estrogen receptor; assay: Antagonist efficacy with estrogen (hER) receptor; not active; format: functional
# [7] = biological target: T2, Progesterone receptor (Homo sapiens); assay: Agonist efficacy towards human progesterone receptor (hPR) using the cotransfection assay in CV-1 cells; format: functional, cell-based
# Progesterone receptor [8] = biological target: T3, Progesterone receptor; assay: Effective concentration for agonist activity towards human progesterone receptor (hPR) using the cotransfection assay in CV-1 cells; format: functional, cell-based
# Progesterone receptor [9] = biological target: T3, Progesterone receptor; assay: Binding affinity to human progesterone receptor
IC50 (Estrogen receptor [1]) [nM],Efficacy [2],IC50 (Progesterone receptor [3]),IC50 [4] [nM],Efficacy [5] [%],Efficacy (Estrogen receptor [6]) [%],Efficacy [7] [%],EC50 (Progesterone receptor [8]) [nM],Ki (Progesterone receptor [9]) [nM],Compound
> 1000,inactive,Not Active,> 1000,< 20,< 20,172,1.7,,CC(C)=C/C=C1\Oc2ccc(F)cc2-c2ccc3c(c21)C(C)=CC(C)(C)N3
> 1000,inactive,Not Active,> 1000,< 20,< 20,80,0.15,0.34,CC(=O)C[C@]1(C(C)=O)CC[C@H]2C3C[C@H](C)C4=CC(=O)CC[C@]4(C)[C@H]3CC[C@@]21C (stereo partly specified)
,inactive,Not Active,,,,112,11,8,CC/C(C)=C1\Oc2ccc(F)cc2-c2ccc3c(c21)C(C)=CC(C)(C)N3

Compound,IC50 (Estrogen receptor [1]) [nM],Efficacy [2],IC50 (Progesterone receptor [3]),IC50 [4] [nM],Efficacy [5] [%],Efficacy (Estrogen receptor [6]) [%],Efficacy [7] [%],EC50 (Progesterone receptor [8]) [nM],Ki (Progesterone receptor [9]) [nM]
CC1=CC(C)(C)Nc2ccc3c(c21)/C(=C/Br)Oc1ccc(F)cc1-3,> 1000,inactive,Not Active,> 1000,< 20,< 20,135,2.2,2.1
